According to patent US20230192691A1, “HETEROCYCLIC COMPOUNDS AS BTK INHIBITORS” (Beijing InnoCare Pharma Tech Co., Ltd., priority 2020, published 2023):
pIC50: −log10 of the molar value.

Legend:
[1] = molecular target: T1, human-derived recombinant BTK protein (Homo sapiens, UniProt Q06187); assay: BTK activity inhibition assay (HTRF in vitro kinase assay); format: biochemical; details: 40 μM ATP, 0.2 ng/μL BTK
T1 construct: purchased Carna Biosciences 08-180
Procedure: In vitro kinase assay was used to evaluate the effects of compounds of the present invention on BTK activity (Table 1).
(§1) By using the homogeneous time-resolved fluorescence (HTRF) kinase detection kit (Cisbio, catalog number 62TK0PEC), the enzymatic activity of BTK is determined by detecting the phosphorylation level of the substrate in the kinase reaction. The reaction buffer contains the enzyme reaction buffer (1×) from the kit, 5 mM MgCl2, 1 mM DTT, 10 nM SEB and 0.01% Tween-20; the kinase reaction solution contains human-derived recombinant BTK protein (Carna Biosciences, Catalog No. 08-180) diluted to 0.2 ng/μL with the reaction buffer; the substrate reaction solution contains biotin-labeled tyrosine kinase substrate diluted to 0.5 μM with the reaction buffer and 40 μM ATP; the detection buffer contains Eu^3+-labeled cage antibody diluted to 0.05 ng/μL and streptavidin-labeled XL665 antibody diluted to 31.25 nM with the reaction buffer; the test compound is dissolved and diluted to 100 μM with DMSO, followed by a 4-fold serial dilution with DMSO to the lowest concentration of 6.1 nM and finally 40-time dilution with the reaction buffer for each concentration point. If the IC50 value of the compound is very low, the initial concentration of the compound is reduced.
(§2) Add 4 μL test compound solution and 2 μL kinase reaction solution to a 384-well detection plate (Corning, catalog number 3674), mix well and incubate at room temperature for 15 minutes; add 4 μL substrate reaction solution and incubate for 50 minutes; add 10 μL detection buffer, mix well and stand for 60 minutes; detect signal at 620 nm and 665 nm using an Envision plate reader (Perkin Elmer). The signal value (absorbance at 665 nm/absorbance at 620 nm) is positively correlated with the degree of phosphorylation of the substrate, thereby detecting the kinase activity of BTK. In this experiment, the group without BTK is the negative control (100% inhibition) and the group with BTK but no compound is the positive control (0% inhibition). The inhibition curve is plotted and the corresponding IC50 value of the test compound is calculated using XLfit software (ID Business Solutions Ltd., UK).

[2] = molecular target: T2, human recombinant BTK C481S protein (Homo sapiens, UniProt Q06187, C481S); assay: BTK C481S activity inhibition assay (HTRF in vitro kinase assay); format: biochemical; details: 35 μM ATP, 1.5 ng/μL BTK C481S
T2 construct: made in house
T2 sequence (Q06187 whole entry C481S): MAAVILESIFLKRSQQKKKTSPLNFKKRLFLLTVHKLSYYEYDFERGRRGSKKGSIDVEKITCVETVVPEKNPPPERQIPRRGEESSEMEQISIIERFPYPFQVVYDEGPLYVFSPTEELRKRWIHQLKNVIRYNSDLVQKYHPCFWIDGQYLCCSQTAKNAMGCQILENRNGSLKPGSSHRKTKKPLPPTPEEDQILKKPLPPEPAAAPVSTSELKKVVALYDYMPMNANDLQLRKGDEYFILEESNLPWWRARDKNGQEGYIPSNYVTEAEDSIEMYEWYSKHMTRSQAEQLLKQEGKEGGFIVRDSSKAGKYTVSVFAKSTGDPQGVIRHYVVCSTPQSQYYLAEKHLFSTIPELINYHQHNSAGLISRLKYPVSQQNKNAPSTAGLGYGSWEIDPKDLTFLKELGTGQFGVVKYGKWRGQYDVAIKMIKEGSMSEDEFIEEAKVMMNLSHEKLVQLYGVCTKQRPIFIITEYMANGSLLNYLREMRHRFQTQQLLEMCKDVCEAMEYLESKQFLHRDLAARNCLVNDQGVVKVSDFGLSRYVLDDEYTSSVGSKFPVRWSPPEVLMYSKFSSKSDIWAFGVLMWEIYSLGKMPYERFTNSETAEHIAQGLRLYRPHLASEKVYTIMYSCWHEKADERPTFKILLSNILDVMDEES
Procedure: In vitro kinase assay was used to evaluate the effects of compounds of the present invention on BTK C481S activity (Table 1).
as §1, with “BTK C481S” for “BTK”, “nM SEB,” for “nM SEB”, “contains human” for “contains human-derived”, “protein (purified in-house)” for “protein (Carna Biosciences, Catalog No. 08-180)”, “to 1.5” for “to 0.2”, “and 35” for “and 40”
as §2, with “activity of BTK C481S. In this” for “activity of BTK. In this”, “with BTK C481 S but no” for “with BTK but no”, “XLfit software (TD Business Solutions” for “XLfit software (ID Business Solutions”

T1 sequence (Q06187 whole entry): as the sequence (Q06187 whole entry C481S) above, with S481C counted along it

pIC50 [1] | pIC50 [2] | Structure (SMILES)
8.57 | 8.89 | COc1ccc(F)cc1C(=O)NCc1ccc(-c2nc(N3CCC(C)(C(=O)O)CC3)n3ccnc(N)c23)cc1 [Compound 27, 1-(8-amino-1-(4-((5-fluoro-2-methoxybenzamido)methyl)phenyl)imidazo[1,5-a]pyrazin-3-yl)-4-methylpiperidine-4-carboxylic acid]
9.00 | 8.66 | COC(=O)C12CCC(c3nc(-c4ccc(CNC(=O)c5cc(F)ccc5OC)cc4)c4c(N)ncnn34)(CC1)CC2 [Compound 28, methyl 4-(4-amino-5-(4-((5-fluoro-2-methoxybenzamido)methyl)phenyl)imidazo[5,1-f][1,2,4]triazin-7-yl)bicyclo[2.2.2]octane-1-carboxylate]
7.85 | 8.44 | COc1ccccc1C(=O)NCc1ccc(-c2nc(C3CCC(CO)OC3)n3ccnc(N)c23)cc1 (centres unmarked) [Compound 10, N-(4-(8-amino-3-(6-(hydroxymethyl)tetrahydro-2H-pyran-3-yl)imidazo[1,5-a]pyrazin-1-yl)benzyl)-2-methoxybenzamide]
8.89 | 8.85 | COc1ccc(F)cc1C(=O)NCc1ccc(-c2nc([C@]3(C)CC[C@@](C)(C(=O)O)CC3)n3ncnc(N)c23)cc1 [Compound 47, (1r,4r)-4-(4-amino-5-(4-((5-fluoro-2-methoxybenzamido)methyl)phenyl)imidazo[5,1-f][1,2,4]triazin-7-yl)-1,4-dimethylcyclohexane-1-carboxylic acid]
8.85 | 8.96 | COc1ccc(F)cc1C(=O)NCc1ccc(-c2nc([C@H]3CC[C@H](C(=O)O)CC3)n3ncnc(N)c23)cc1 [Compound 15, (1r,4r)-4-(4-amino-5-(4-((5-fluoro-2-methoxybenzamido)methyl)phenyl)imidazo[5,1-f][1,2,4]triazin-7-yl)cyclohexane-1-carboxylic acid]
9.10 | 8.74 | COC(=O)C12CCC(c3nc(-c4ccc(CNC(=O)c5cc(F)ccc5OC)cc4)c4c(N)nccn34)(CC1)CC2 [Compound 33, methyl 4-(8-amino-1-(4-((5-fluoro-2-methoxybenzamido)methyl)phenyl)imidazo[1,5-a]pyrazin-3-yl)bicyclo[2.2.2]octane-1-carboxylate]
8.54 | 8.68 | COC(=O)C12CCC(c3nc(-c4ccc(CNC(=O)c5cc(F)ccc5OC)cc4)c4c(N)nccn34)(CC1)C2 [Compound 38, methyl 4-(8-amino-1-(4-((5-fluoro-2-methoxybenzamido)methyl)phenyl)imidazo[1,5-a]pyrazin-3-yl)bicyclo[2.2.1]heptane-1-carboxylate]
8.89 | 8.72 | COc1ccc(F)cc1C(=O)NCc1ccc(-c2nc(C34CCC(C(=O)N5CCOCC5)(CC3)CC4)n3ccnc(N)c23)cc1 [Compound 37, N-(4-(8-amino-3-(4-(morpholine-4-carbonyl)bicyclo[2.2.2]octan-1-yl)imidazo[1,5-a]pyrazin-1-yl)benzyl)-5-fluoro-2-methoxybenzamide]
8.77 | 8.60 | COc1ccc(F)cc1C(=O)NCc1ccc(-c2nn(C3CCC(CO)CC3)c3ccnc(N)c23)cc1 (centres unmarked) [Compound 2, N-(4-(4-amino-1-(4-(hydroxymethyl)cyclohexyl)-1H-pyrazolo[4,3-c]pyridin-3-yl)benzyl)-5-fluoro-2-methoxybenzamide]
8.62 | 8.20 | COc1ccc(F)cc1C(=O)NCc1ccc(-c2nc([C@]3(C)CC[C@@](C)(C(=O)O)CC3)n3ccnc(N)c23)cc1 [Compound 32, (1r,4r)-4-(8-amino-1-(4-((5-fluoro-2-methoxybenzamido)methyl)phenyl)imidazo[1,5-a]pyrazin-3-yl)-1,4-dimethylcyclohexane-1-carboxylic acid]
6.81 | 7.44 | COc1ccc(F)cc1C(=O)NCc1ccc(-c2nc([C@@H]3CCNC3)n3ncnc(N)c23)cc1 [Compound 22, (R)-N-(4-(4-amino-7-(pyrrolidin-3-yl)imidazo[5,1-f][1,2,4]triazin-5-yl)benzyl)-5-fluoro-2-methoxybenzamide]
8.49 | 8.54 | COc1ccc(F)cc1C(=O)NCc1ccc(-c2nc([C@H]3CC[C@H](CO)CC3)n3ncnc(N)c23)cc1 [Compound 14, N-(4-(4-amino-7-((1r,4r)-4-(hydroxymethyl)cyclohexyl)imidazo[5,1-f][1,2,4]triazin-5-yl)benzyl)-5-fluoro-2-methoxybenzamide]
8.85 | 9.10 | COc1ccc(F)cc1C(=O)NCc1ccc(-c2nc([C@H]3CC[C@H](C(=O)O)CC3)n3ccnc(N)c23)cc1 [Compound 13, (1r,4r)-4-(8-amino-1-(4-((5-fluoro-2-methoxybenzamido)methyl)phenyl)imidazo[1,5-a]pyrazin-3-yl)cyclohexane-1-carboxylic acid]
7.70 | 8.41 | COc1ccccc1C(=O)NCc1ccc(-c2nc(C3CCC(CO)OC3)n3ccnc(N)c23)cc1F (centres unmarked) [Compound 11, N-(4-(8-amino-3-(6-(hydroxymethyl)tetrahydro-2H-pyran-3-yl)imidazo[1,5-a]pyrazin-1-yl)-2-fluorobenzyl)-2-methoxybenzamide]
8.20 | 8.62 | COc1ccc(F)cc1C(=O)NCc1ccc(-c2nc(C3CCOC3)n3ncnc(N)c23)cc1 (centres unmarked) [Compound 17, N-(4-(4-amino-7-(tetrahydrofuran-3-yl)imidazo[5,1-f][1,2,4]triazin-5-yl)benzyl)-5-fluoro-2-methoxybenzamide]
8.92 | 9.10 | COc1ccc(F)cc1C(=O)NCc1ccc(-c2nc(C3CCC(CO)OC3)n3ccnc(N)c23)cc1 (centres unmarked) [Compound 8, N-(4-(8-amino-3-(6-(hydroxymethyl)tetrahydro-2H-pyran-3-yl)imidazo[1,5-a]pyrazin-1-yl)benzyl)-5-fluoro-2-methoxybenzamide]
8.00 | 8.15 | COc1ccc(F)cc1C(=O)NCc1ccc(-c2nc(N3CCOCC3)n3ccnc(N)c23)cc1 [Compound 44, N-(4-(8-amino-3-morpholinoimidazo[1,5-a]pyrazin-1-yl)benzyl)-5-fluoro-2-methoxybenzamide]
9.05 | 8.47 | CNC(=O)C12CCC(c3nc(-c4ccc(CNC(=O)c5cc(F)ccc5OC)cc4)c4c(N)nccn34)(CC1)CC2 [Compound 36, 4-(8-amino-1-(4-((5-fluoro-2-methoxybenzamido)methyl)phenyl)imidazo[1,5-a]pyrazin-3-yl)-N-methylbicyclo[2.2.2]octane-1-carboxamide]
9.15 | 9.10 | [2H]C([2H])([2H])Oc1ccc(F)cc1C(=O)NCc1ccc(-c2nc([C@H]3CC[C@H](CO)CC3)n3ncnc(N)c23)cc1 [Compound 18, N-(4-(4-amino-7-((1r,4r)-4-(hydroxymethyl)cyclohexyl)imidazo[5,1-f][1,2,4]triazin-5-yl)benzyl)-5-fluoro-2-(methoxy-d3)benzamide]
